Earlier results as cited in US20100120780A1, “TREATMENTS FOR PREMATURE EJACULATION IN HUMANS” (priority 2007, published 2010).
Structures can show the parent of a compound that is named as a salt.

How the values were obtained:
[1] = 0.2M sodium chloride
μ-opiate receptors = μ-opiate receptors (Homo sapiens, UniProt P35372)
[2] = for accumulation: multiple dose treatment with tramadol
[3] = rats
[4] = oral administration, Viagra formulation
[5] = target: phosphodiesterase type 5 (PDE5) (Homo sapiens, UniProt O76074); conditions: PDE5 vs PDE6

Chain of μ-opiate receptors (P35372 whole entry): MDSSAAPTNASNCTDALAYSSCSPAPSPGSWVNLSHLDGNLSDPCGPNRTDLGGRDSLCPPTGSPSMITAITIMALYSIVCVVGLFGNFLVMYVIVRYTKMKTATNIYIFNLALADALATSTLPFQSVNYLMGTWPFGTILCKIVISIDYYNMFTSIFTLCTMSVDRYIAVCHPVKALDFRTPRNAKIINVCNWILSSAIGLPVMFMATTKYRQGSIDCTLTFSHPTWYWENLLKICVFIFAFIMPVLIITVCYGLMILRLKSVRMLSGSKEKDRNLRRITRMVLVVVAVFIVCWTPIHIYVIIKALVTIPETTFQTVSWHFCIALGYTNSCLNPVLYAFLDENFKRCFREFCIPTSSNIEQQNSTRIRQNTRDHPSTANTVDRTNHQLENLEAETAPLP

Question: For COc1ccc(C(CN(C)C)C2(O)CCCCC2)cc1 (racemic) [Venlafaxine hydrochloride, (R/S)-1-[2-(dimethylamino)-1-(4-methoxyphenyl)ethyl]cyclohexanol], which “octanol:water partition coefficient” value [1] is on record?
Answer: Its value is 0.43.

Question: For COc1cccc(C2(O)CCCCC2CN(C)C)c1 (racemic) [tramadol, (+/−)-trans (RR,SS)-2-[(di-methylamino)methyl]-1-(3-methoxyphenyl)cyclohexanol], which “duration of the analgesic effect” value (single oral dose of tramadol 100 mg) is on record?
Answer: The value was “about 6 hours”.

Question: What about the “affinity for μ-opiate receptors, fold less than codeine” value (μ-opiate receptors; relative to codeine) of the same compound?
Answer: Its value is 10 fold.

Question: And the “affinity for μ-opiate receptors, fold less than d-propoxyphene” value (μ-opiate receptors; relative to d-propoxyphene)?
Answer: The value was 100 fold.

Question: And the “affinity for μ-opiate receptors compared to dextromethorphan” value (μ-opiate receptors; relative to dextromethorphan)?
Answer: Its value is “equivalent”.

Question: What about the “affinity for μ-opiate receptors, fold less than morphine” value (μ-opiate receptors; relative to morphine) of the same compound?
Answer: Its value is 6,000 fold.

Question: And the accumulation [2]?
Answer: The accumulation was “approximately 2 fold”.

Question: And the “time to peak serum concentrations” value ([2]; oral administration)?
Answer: The value was ≤ 2 h.

Question: Which “analgesic potency relative to the parent drug” value (relative to tramadol) does the source give for CN(C)C[C@H]1CCCC[C@]1(O)c1cccc(O)c1 [M1 derivative, O-desmethyltramadol] here?
Answer: Its value is “at least twice”.

Question: What about the accumulation [2] of the same compound?
Answer: The accumulation was “approximately 2 fold”.

Question: Which results are given for COc1cc(CNC(=O)CCCCC=CC(C)C)ccc1O [capsaicin, 8-methyl-N-vanillyl-6-nonenamide]?
Answer: time to distribution to the brain, spinal cord, liver and blood ([3]; intravenous administration): ≤ 20 min; absorption in the jejunum ([3]; oral dosing, after 3 hours): 85%

Question: With CCCc1nn(C)c2c(=O)[nH]c(-c3cc(S(=O)(=O)N4CCN(C)CC4)ccc3OCC)nc12 [sildenafil, 1-[[3-(6,7-dihydro-1-methyl-7-oxo-3-propyl-1H-pyrazolo[4,3-d]pyrimidin-5-yl)-4-ethoxyphenyl]sulfonyl]-4-methyl piperazine] as the compound, how does the absolute bioavailability [4] read?
Answer: Its absolute bioavailability is “about 40%”.

Question: And the “potency for PDE5 compared to PDE6” value [5]?
Answer: Its value is “about 10 fold”.
